# Entries after “also recorded” stand apart in the source; their conditions may differ.
# Tests used:
# [1] = Stability of A9 in solution; format: physicochemical
# Description: 5. Physical properties: A9 stock can be dissolved in ethanol, methylene chloride, or DMSO as high as 25 mg/ml. The stock of A9 can then be diluted in water or saline. The final concentration in saline can reach 10 mg/ml according to our experience. A9 is very stable in organic solvents and keeps its activity (indicated by its ability to stimulate ERK activation in NS20Y cells, data not shown) for 6 months at room temperature. […] In saline, its half-life was reported to be 4 days at 37° C. (Golumb, Atherosclerosis 125:171-182, 1996). […] A similar evaluation of the chemical nature of any tyrphostin can be used to determine if it is of use to induce neurite outgrowth and regeneration in a subject.
# SH-SY5Y cells = test: Neurite length in NGF-treated SH-SY5Y neuroblastoma cells; format: cell-based, human; conditions: 96 and 168 hours; for Neurite length / neurite elongation: SH-SY5Y + NGF 10 ng/ml, FK506 100 nM, A9 10 nM, 100 nM and 1 μM
# Description: Analysis of neurite length in SH-SY5Y neuroblastoma cells: SH-SY5Y neuroblastoma cells develop axonal-like processes on treatment with NGF. For analysis of process length, cells (20 fields/well) are randomly photographed at 96 and 168 hours. Neurite lengths are measured on photographic prints using a Houston Instrument HI-PAD digitizing tablet connected to a computer with appropriate software (Bioquant IV); only processes more than twice the cell body length are measured. Data from identically treated wells are combined. […] Histograms are compared using a Mann-Whitney U test (α=0.05), which makes no assumptions about the shape of the distribution.
# As disclosed herein, high and sustained ERK activation induces neurite growth in […] neuroblastoma cells and protects neuronal cells from neurotoxins. To test this, SH-SY5Y human neuroblastoma cells were used, which can be induced into neuron-like phenotype by NGF treatment. This is an established method for measuring neurite growth-promoting activity in vitro in Dr. Gold's lab (Gold et al., Neurosignals. 13:122-129, 2004; Gold et al., Exp. Neurol. 147:269-278, 1997). […] Representative micrographs at 168 hours for vehicle (control), NGF (10 ng/ml), and NGF (10 ng/ml) plus A9 (100 nM) are shown in FIG. 5B.
# [2] = test system: primary rat SNc neuron cultures; test: [3H]Dopamine uptake in primary SNc neuron cultures; format: cell-based; conditions: A9 for six days
# Description: Primary cultures of rat embryonic SNc neuron cultures were grown on treated 12-well plates (for dopamine uptake) or coverslips (for neuroprotection) for 10 days as described in the Examples section. In FIG. 6A, the neurons were treated with different concentrations of A9 for 6 days before dopamine uptake was measured. Data=mean±SD (n=3). In FIG. 6B, MPP^+ (25 μM) was added into medium on day 11, while A9 was added either on day 10 (pretreatment) or day 12 (after MPP^+). Half of the medium was changed with fresh A9 on day 14. The neurons were fixed on day 16 and stained for tyrosine hydroxylase (TH, green) and total-ERK (red). Images were captured with fluorescence microscopy at magnification×100.
# Dopamine uptake: NS20Y cells or neuron cultures are plated on poly-L-lysine (for NS20Y) or poly-D-lysine (for neuron culture)-coated 24-well plates and grown to confluence. The medium is decanted and cells are prepared for [^3H]dopamine uptake. Cells are incubated in the presence or absence of mazindol (10 μM to determine nonspecific uptake) for at least 10 minutes prior to addition of [^3H]dopamine. The uptake assay (final volume 0.5 ml) is initiated by the addition of 50 nM [^3H]dopamine and 2 μM dopamine in Krebs-HEPES buffer. […] Radioactivity remaining in each well is determined using liquid scintillation spectrometry. […]
smiles,measurement,setting,value
"CC(C)(C)c1cc(C=C(C#N)C#N)cc(C(C)(C)C)c1O [A9, tyrphostin A9]",Effect of repeated freeze/thaw cycles on activity,[1]; in organic solvents,do not affect its activity
same,Time for which activity is kept in organic solvents,"[1]; room temperature, activity by ERK activation in NS20Y cells",6 months
same,Neurite length / neurite elongation,SH-SY5Y cells,dramatically increased in length
same,Neurite length / neurite elongation,SH-SY5Y cells; listed as tyrphostin A9,stimulated neurite elongation
same,"Distribution of neurite length (cumulative histograms), shift to the right versus NGF-treated",SH-SY5Y cells; SH-SY5Y,more pronounced
same,Concentration at which maximum dopamine uptake response is reached,[2],100 nM
same,Dopamine uptake,[2],increased dopamine uptake in primary rat SNc neuron cultures in a concentration-dependent manner; also recorded: stimulated dopamine uptake increase
